This is an account of results in publication PMC9082971, “Nature-derived epoxy resins: Synthesis, allergenicity, and thermosetting properties of pinoresinol diglycidyl ether” (Toxicology and Industrial Health, 2022).

SMILES strings stand for the structures. Read-outs that look alike come from different tables or passages of the source. Some results are limits rather than exact numbers.

For series [1], the system named is KeratinoSens reporter keratinocytes (luciferase gene under control of the ARE element of the AKR1C2 gene). Nature of the series: KeratinoSens ARE-Nrf2 luciferase assay. The class given is cell-based. The following applies: for ECKS1.5: extrapolated concentration for 1.5 fold luciferase induction; for ECKS4.5: extrapolated concentration for 4.5 fold luciferase induction; for Classification: KeratinoSens, luciferase induction greater than 1.5-fold at non-cytotoxic concentrations. How it is done:
(§1) KeratinoSens Assay for Sensitization and Cellular Viability. The KeratinoSens™ assay was performed according to the OECD guidelines ([OECD, 2018]). Compounds were incubated at 12 concentrations (0.98–2000 μM) for 48 h with cinnamic aldehyde as the positive control. The experiment was repeated on three independent occasions.
In Vitro Skin Sensitization: KeratinoSens ARE-Nrf2 Luciferase Assay. […] ECKS1.5 represents the extrapolated concentration for which induction of luciferase activity is above the 1.5 fold threshold (i.e., 50% enhanced luciferase activity). The ECKS4.5 values were used for comparison of sensitizing potency.

The test system of another series is model peptide AcPHCKRM. Nature of the series: Reactivity toward the model peptide AcPHCKRM (peptide depletion, HPLC/ESI-MS). The following applies: 10 mM compound, 1 mM AcPHCKRM. How it is done:
All solvents were degassed with argon prior to use. […] Monoepoxides PGE, 1 or 2 were prepared in DMSO (40 mM, 100 μL) together with potassium phosphate buffer (100 mM, pH 7.4) (200 μL) and separately added to a vial purged with argon containing AcPHCKRM dissolved in DMSO (4 mM, 100 μL).
Based on our previous studies regarding the chemical reactivity of the epoxide-containing compounds ([O’Boyle et al., 2014]; [Ponting et al., 2019]), the depletion of the nucleophilic hexapeptide Ac-Pro-His-Cys-Lys-Arg-Met-OH (AcPHCKRM) was analyzed in reaction mixtures at pH 7.4 with a 10-fold excess of the respective test chemical in a mixture of phosphate buffer and DMSO.

Series [2] can be described thus: Cellular viability (MTT) in the KeratinoSens assay. The series is classed as cell-based. The following applies: human, KeratinoSens reporter keratinocytes, 50% reduction in cellular viability, read-out: Cytotoxicity IC50. How it is done: as §1
Details of series [3]: method as in O’Boyle et al., 2014. The following applies: ref O’Boyle et al., 2014, cited from earlier work.
Series [4] relates to KeratinoSens reporter keratinocytes (luciferase gene under control of the ARE element of the AKR1C2 gene). The following applies: cited from earlier work.
For series [5], the system named is KeratinoSens reporter keratinocytes. The following applies: read-out: Cytotoxicity IC50; 50% reduction in cellular viability, MTT assay; ref Delaine et al., 2011; cited from earlier work.
The subject of series [6] is CBA/Ca mice. The following applies: cited from earlier work.
The test system of the next series is mice and guinea pigs. The following applies: cited from earlier work.
Series [7] concerns CBA/Ca mice. Description: Murine local lymph node assay (LLNA). The series is classed as in vivo. The protocol:
(§2) Experimental Animals. Female CBA/Ca mice, 7 or 9 weeks of age, were purchased from NOVA SCB Charles River, Germany. The mice were housed in HEPA filtered airflow cages and kept on standard laboratory diet and water ad lib. The regional ethics committee, Jordbruksverket, approved the protocol and the procedure was performed in accordance with the guidelines. Sensitization Potential of PinoDGE in Mice. […] Computational Techniques. Reactivity of cysteine residues toward the compounds under investigation was modeled as reactivity toward methanethiolate. Reactivity calculations were carried out at the B3LYP-D3/6–31+G**([Stephens et al., 1994]; [Becke, 1988]; [Slater, 1974]; [Goerigk and Grimme, 2011]; [Grimme et al., 2010]; [Ditchfield et al., 1971]) level of theory in Jaguar (Schrodinger LLC, N. Y. Jaguar, version 7.6, 2009). Further experimental details are contained in the supplementary information. Cross-Linking Procedure and Thermogravimetric Analysis (TGA).
(§3) In Vivo Skin Sensitizing Potency Studies. The LLNA was used to assess the skin sensitizing potency of PinoDGE. […] The standard vehicle, acetone: olive oil (AOO) (4:1), was initially used as the vehicle. […] Pure acetone is described as a suitable vehicle in the LLNA ([Jowsey et al., 2008]); however, a closer match to AOO was desired, leading to the choice of AOO 16:1.

Series [8] can be described thus: Cross-linking with TETA and thermogravimetric analysis (TGA). The class given is physicochemical. The protocol: as §2
Cross-Linking of PinoDGE with TETA. […] Initial decomposition temperature (IDT) indicated the apparent thermal stability of the epoxy resin.

Series [9] is described as follows: Solubility in the LLNA test vehicle. The class given is physicochemical.
Source text: as §3

The mark [10] stands for this setting: after 45 min, pH 7.4 phosphate buffer/DMSO.
Setting [11] is: cross-linked with TETA, TGA under nitrogen.
Where [12] appears, read: cured epoxy resin, Horwitz-Metzger equation.
[13] abbreviates: LLNA, ref Niklasson et al., 2009.
[14] abbreviates: AOO 16:1, 10% w/v (0.21 M), precipitating from solution on the ears of the mice.

`COc1ccccc1OCC1CO1` (centres unmarked) [Compound 1, 2-((2-methoxyphenoxy)methyl)oxirane]: in series [1], the ECKS1.5 was 23 µM and the ECKS4.5 was 64 µM.
`O=[N+]([O-])c1ccccc1OCC1CO1` (centres unmarked) [Compound 2, 2-((2-nitrophenoxy)methyl)oxirane] displayed a peptide remaining in the series on model peptide AcPHCKRM (after 40 min, pH 7.4) of 28%. The same molecule showed a peptide remaining with model peptide AcPHCKRM (at 200 min, pH 7.4) of 24%. For the same molecule, in series [1], the Classification entry is “Sensitizer”, the ECKS1.5 was 12 µM and the ECKS4.5 was 37 µM. Also, in series [2], the IC50 at 48 h stood at 88 µM.
`CC(C)(c1ccc(OCC2CO2)cc1)c1ccc(OCC2CO2)cc1` (centres unmarked) [DGEBA, diglycidyl ether of bisphenol A] returned a peptide remaining in the series with model peptide AcPHCKRM (setting [10]) of 37%. The same molecule came in with a peptide remaining with model peptide AcPHCKRM (after 85 min, pH 7.4) of 18%. Further, the peptide remaining with model peptide AcPHCKRM (after 205 min, pH 7.4) is 7%. Also, in series [3] (setting [11]), the “IDT (initial decomposition temperature)” value is 358 ˚C, the “Rmax (maximum weight loss rate)” value is given as −1.58 %/˚C and the “Tmax (temperature at maximum rate of weight loss)” value was 382 ˚C. The “Ea (activation energy for decomposition)” value in [3] (setting [12]) was 22.9 kcal/mol. Further, in [4], the ECKS1.5 was 5.2 µM and the ECKS4.5 is 10 µM. Also, the IC50 in series [5] was 22 µM. Moreover, the EC3 in the series on CBA/Ca mice [6] (setting [13]) is 0.036 M. In addition, the Classification as sensitizer result in the series on mice and guinea pigs (mice and guinea pigs, ref Thorgeirsson et al., 1978, Delaine et al., 2011, Pontén et al., 2002, Basketter et al., 2005) is listed as “strong sensitizers”.
For the molecule `c1cc(OCC2CO2)ccc1Cc1ccc(OCC2CO2)cc1` (centres unmarked) [DGEBF, diglycidyl ether of bisphenol F], the Classification as sensitizer result with mice and guinea pigs (in vivo) was “strong sensitizers”.
Consider `CCCCCCC(C=O)=Cc1ccccc1` [HCA, hexylcinnamic aldehyde, reference compound], for which the EC3 with CBA/Ca mice [7] (control experiment in AOO 16:1) is 11.8 % w/v; in the series on CBA/Ca mice [6] (reported values in 4:1 AOO, ref OECD, 2010) it was 4.4–14.7 % w/v.
`c1ccc(OCC2CO2)cc1` (centres unmarked) [PGE, phenylglycidyl ether]: the peptide remaining with model peptide AcPHCKRM (after 40 min, pH 7.4) stood at 35%; in the series with model peptide AcPHCKRM (at 200 min, pH 7.4), 26%. Besides, the “Imax (fold induction)” value in series [4] (average maximal induction of gene activity, ref Delaine et al., 2011) is recorded as 56 fold induction. For the same molecule, the ECKS1.5 in [4] (extrapolated concentration for 1.5 fold luciferase induction, ref Delaine et al., 2011) is 16 µM. Also, the ECKS4.5 in series [4] (extrapolated concentration for 4.5 fold luciferase induction, ref Delaine et al., 2011) was 63 µM. In [5], the IC50 is 182 µM. Moreover, the EC3 in the series with CBA/Ca mice [6] (setting [13]) is 0.031 M. Moreover, the LLNA classification result with CBA/Ca mice [6] (ref Niklasson et al., 2009) is reported as “strong sensitizer”.
With `COc1cc([C@H]2OC[C@H]3[C@@H]2CO[C@@H]3c2ccc(OCC3CO3)c(OC)c2)ccc1OCC1CO1` (some centres unmarked) [PinoDGE, pinoresinol diglycidyl ether], the peptide remaining in the series with model peptide AcPHCKRM (setting [10]) turned out to be 8%; in the series on model peptide AcPHCKRM (after 85 min, pH 7.4), 5%. Moreover, the Classification result in [1] is “skin sensitizer”. In addition, the ECKS1.5 in [1] is 2.5 µM. Further, the ECKS4.5 in [1] is 7.4 µM. For the same molecule, the IC50 at 48 h in [2] came to 24 µM. Moreover, the “(3H)thymidine incorporation” value stood at 280 dpm/lymph node with CBA/Ca mice [7] (AOO 4:1, 0.10% w/v (0.0021 M)); 368 dpm/lymph node in the series with CBA/Ca mice [7] (AOO 4:1, 1.0% w/v (0.021 M)); 166 dpm/lymph node in the series with CBA/Ca mice [7] (AOO 4:1, 2.5% w/v (0.053 M)); 325 dpm/lymph node in the series on CBA/Ca mice [7] (AOO 4:1, 3.0% w/v (0.064 M)); 327 dpm/lymph node with CBA/Ca mice [7] (AOO 4:1, 5.0% w/v (0.11 M)); 130 dpm/lymph node in the series with CBA/Ca mice [7] (AOO 16:1, 2.0% w/v (0.043 M)). The “(3H)thymidine incorporation” value in the series on CBA/Ca mice [7] (AOO 16:1, 4.0% w/v (0.085 M)) is recorded as 180 dpm/lymph node; with CBA/Ca mice [7] (AOO 16:1, 6.0% w/v ([…])) it was 195 dpm/lymph node; in the series on CBA/Ca mice [7] (AOO 16:1, 8.0% w/v (0.17 M)), 480 dpm/lymph node; in the series with CBA/Ca mice [7] (setting [14]), 180 dpm/lymph node. In addition, the SI came to 0.94 in the series on CBA/Ca mice [7] (AOO 4:1, 0.10% w/v (0.0021 M)); 1.23 with CBA/Ca mice [7] (AOO 4:1, 1.0% w/v (0.021 M)); 0.56 in the series on CBA/Ca mice [7] (AOO 4:1, 2.5% w/v (0.053 M)); 1.09 with CBA/Ca mice [7] (AOO 4:1, 3.0% w/v (0.064 M)); 1.10 in the series on CBA/Ca mice [7] (AOO 4:1, 5.0% w/v (0.11 M)); 0.52 in the series with CBA/Ca mice [7] (AOO 16:1, 2.0% w/v (0.043 M)). For the same molecule, the SI in the series with CBA/Ca mice [7] (AOO 16:1, 4.0% w/v (0.085 M)) is 0.73; with CBA/Ca mice [7] (AOO 16:1, 6.0% w/v ([…])), 0.79; in the series with CBA/Ca mice [7] (AOO 16:1, 8.0% w/v (0.17 M)), 1.94; with CBA/Ca mice [7] (setting [14]), 0.73; in the series on CBA/Ca mice [7] (any of the concentrations tested, both vehicles), ≤ 3. The EC3 with CBA/Ca mice [7] (LLNA, AOO 4:1 and AOO 16:1) was > 0.17 M. In the series on CBA/Ca mice [7] (concentrations up to 0.17 M), the LLNA classification entry is “not classified as a skin sensitizer”. Besides, the “maximum rate of degradation (Rmax) relative to DGEBA” value in [8] (Rmax as percentage of that of DGEBA) was 58%. Also, in series [8] (setting [11]), the “IDT (initial decomposition temperature)” value was 338 ˚C. In addition, in series [8] (setting [11]), the “Rmax (maximum weight loss rate)” value was −0.92 %/˚C. Further, the “Tmax (temperature at maximum rate of weight loss)” value in [8] (setting [11]) is 370 ˚C. Moreover, the “Ea (activation energy for decomposition)” value in [8] (setting [12]) worked out at 30.6 kcal/mol. Moreover, the “IDT lower than that of DGEBA” value in series [8] (difference to DGEBA polymer) stood at 20 °C. Further, in series [8] (difference to DGEBA polymer), the “Tmax lower than that of DGEBA” value came to 12 °C. The Solubility in vehicle result in [9] (AOO 16:1, precipitated from a 10% w/v solution) is given as “up to 8 % w/v”; in series [9] (AOO (4:1)), ≤ 5 % w/v. Also, the solubility was ≤ 110 mM in series [9] (acetone:olive oil (AOO) 4:1, organic solvent or mixture, AOO (4:1)) and ≤ 170 mM in series [9] (acetone:olive oil (AOO) 16:1, organic solvent or mixture, AOO 16:1, precipitated from a 10% w/v solution).
